Experiments:
[1] = tested on: H9C2 cardiomyocytes; experiment: γ-H2AX DNA damage signal by Western blotting; format: cell-based; details: for effect on doxorubicin-induced γ-H2AX: ROS scavenger 100 μg/ml, added 30 min prior to doxorubicin
Protocol: Cell lysates were analyzed by Western blotting using anti-γ-H2AX or anti-α-tubulin antibody (for assessing protein loading). […] Cells were then lysed and analyzed by Western blotting using anti-γ-H2AX or anti-α-tubulin antibody. […] Cells were then lysed and analyzed by Western blotting using anti-γ-H2AX or anti-α-tubulin antibody.
(§1) Vitamin C and NAC were added 30 min prior to doxorubicin. Cell lysates were then analyzed by Western blotting using anti-γ-H2AX or anti-α-tubulin antibody. […] Cell lysates were then analyzed by Western blotting (upper panel) using anti-γ-H2AX or anti-α-tubulin antibody. Quantification of γ-H2AX signals is shown in the lower panel. C, H9C2 cells were treated with 0.1% DMSO (labeled DMSO), bortezomib (1 μM) or MG132 (4 μM) for 30 min, followed by co-treatment with either 0.1% DMSO (labeled control) or 0.5 μM doxorubicin (labeled Doxo) for 1.5 hrs. Neutral comet assay was then performed as described in Materials and Methods. The average comet tail moments were plotted as histograms (mean±SEM). *p-value<0.001, t-test.

[2] = biological target: purified recombinant human Top2α (Homo sapiens, UniProt P11388); experiment: In vitro DNA cleavage assay (Bodley et al.), Top2α; format: biochemical; details: as stated in Table 2
Protocol: (§2) Various β-carboline derivatives of compounds of Formula I above were evaluated for their antineoplastic activities and for their ability to preferentially poison Top2 isozymes. These compounds (i.e. those in Table 1 below) were also evaluated for Top2 isozyme-specific poisoning using the in vitro DNA cleavage assay described by Bodley et al. In the studies, purified recombinant human Top2 isozymes were used.
(§3) Reactions were terminated with SDS (final 1%) and digested with proteinase K (100 μg/ml at 50° C. for 1 hr). After adding gel loading solution, the reaction mixtures were analyzed by agarose gel electrophoresis. Gel was dried and exposed to x-ray films for visualization.
(§4) In certain preferred embodiments, the methods for identifying Top2α preferential poisons include using in vitro DNA cleavage assays. In the in vitro DNA cleavage assay, compounds as potential Top2 poisons are tested for their isozyme specificities through this assay using purified recombinant human Top2α (“hTop2α”) and human Top2β (“h Top2β”) isozymes. In this assay, the ability of various Top2 poisons to induce Top2 isozyme-mediated DNA cleavage of ^32P end-labeled linearized plasmid DNA was assessed. Thus, the relative specificity of various Top2 poisons against Top2 isozymes can be qualitatively determined based on the depletion of band intensities and/or the intensities of bands representing the cleavage products.

[3] = biological target: purified recombinant human Top2β (Homo sapiens, UniProt Q02880); experiment: In vitro DNA cleavage assay (Bodley et al.), Top2β; format: biochemical; details: for Poisoning activity against Top2β: DNA cleavage, purified recombinant human Top2β; for activity against Top2β: as stated in Table 2; as to Poisoning activity against Top2β: key: each + represent roughly 10-fold in activity; −: non-detectable
Protocol: as §2, §3, §4

[4] = tested on: A549 lung carcinoma; experiment: Cytotoxicity IC50 against A549 lung carcinoma; format: cell-based
[5] = tested on: melanomas in the skin of DMBA-initiated TOP2β+ and skin-specific top2β knockout mice; experiment: Carcinogenesis assay using a mouse skin model; format: in vivo
From the text: Skin-specific top2β knockout mice and their TOP2β^+ controls were derived from the top2β^+/flox2 and top2β^flox2/flox2 lines previously reported. The top2β^flox2 allele contains two loxP sites flanking three Top2β exons that encode a region of TopIIβ containing the active-site tyrosyl residue; this allele expresses wild-type TopIIβ, but is converted to a null allele top2β^Δ2 upon exposure to Cre recombinase. Skin-specific deletion within the floxed top2β allele is achieved by crossing the top2β^flox2 lines with mice expressing Cre recombinase from the keratin 14 promoter (kindly provided by Andrew P. McMahon, Harvard University). The K14-Cre transgenic mouse line expresses Cre in the keratinocytes of the epidermis and the hair follicles during prenatal and postnatal development. Mice with the genotype K14-Cre top2β^flox2/flox2, K14-Cre top2β^+/flox2, top2β^flox2/flox2 and top2β^+/flox2 were generated and used in this study; with the exception of K14-Cre top2β^flox2/flox2 mice, which lack TopIIβ in skin cells, all the others are phenotypically Top2β^+ in all tissues.
Seven-week old skin-specific top2β knockout mice and their TOP2β^+ controls were used in the study. The back of each mouse was shaved two days prior to treatment. The tumor initiator DMBA (1 μmol in 100 μl of DMSO) was applied once in the first week, followed by various treatments (two applications per week) for six groups of animals: Group 1, DMSO (100 μl), 5 applications; Group 2, VP-16 (10 μmol in 100 μl DMSO), 5 applications; Group 3, VP-16 (20 μmol in 200 μl of DMSO), 3 applications; Group 4, the tumor promoter TPA (phorbol 12-tetradecanoate 13-acetate, 17 nmol in 100 μl DMSO), 8 applications; Group 5, VP-16 (5 μmol in 100 μl DMSO), 5 application; Group 6, VP-16 (5 μmol in 100 μl DMSO), 10 applications. Mice were examined every week for appearance of melanomas on their skins. The number of melanomas visibly notable was scored at the end of the 16th week. The average numbers of tumors induced in different treatment groups were compared using Student's t-test.

[6] = tested on: H9C2 cardiomyocytes; format: cell-based; details: bortezomib 1 μM or MG132 4 μM co-treatment, 0.5 μM doxorubicin, p<0.001
Protocol: as §1
The amount of Top2 cleavage complexes was measured by a band depletion assay as described in Materials and Methods. Cells were lysed either immediately or after reversal of the Top2 cleavage complexes (labeled R+250). Cell lysates were analyzed by Western blotting using anti-Top2α/Top2β or anti-α-tubulin antibody. […] Cells were then lysed and protein levels of Top2α, and Top2β isozymes were determined by Western blotting. […] Cell lysates were immunoblotted using anti-Top2β antibody. D, H9C2 cells were treated with ICRF187 (100 μM) for 4 hrs, followed by treatment with doxorubicin (Doxo, 0, 0.5 and 1 μM) for 1.5 hrs. […]

[7] = tested on: Top2β; experiment: Top2β protein level by Western blotting in H9C2 cells; format: cell-based; details: 1 μM co-treatment
Protocol: The amount of Top2 cleavage complexes was measured by a band depletion assay as described in Materials and Methods. Cells were lysed either immediately or after reversal of the Top2 cleavage complexes (labeled R+250). Cell lysates were analyzed by Western blotting using anti-Top2α/Top2β or anti-α-tubulin antibody. […] Cells were then lysed and protein levels of Top2α, and Top2β isozymes were determined by Western blotting. […] Cell lysates were immunoblotted using anti-Top2β antibody. D, H9C2 cells were treated with ICRF187 (100 μM) for 4 hrs, followed by treatment with doxorubicin (Doxo, 0, 0.5 and 1 μM) for 1.5 hrs. Neutral comet assay was then performed as described in Materials and Methods. The average comet tail moments were plotted as histograms (mean±SEM). * p-value<0.001, t-test.

[8] = tested on: control-shRNA-PC12 and Top2β-shRNA-PC12 cells; experiment: 4-day MTT assay in PC12 knockdown cells; format: cell-based, rat
Protocol: (§5) Primary MEFs were isolated from E13.5 Top2β^+/+, Top2β^+/Δ2 and Top2β^Δ2/Δ2 mouse embryos, as described (the Top2β^Δ2 allele contains a deletion in the coding region of the active-site tyrosyl residue). SV40-transformed MEFs were obtained by transformation with pAN2 DNA as described. Cells were maintained in DMEM supplemented with 10% FetalPlex animal serum complex (Gemini Bio-Products), L-glutamine (2 mM), penicillin (100 units/ml), and streptomycin (100 μg/ml) in a 37° C. incubator with 5% CO2. PC12 cells were first clonally selected and then used to generate Top2β-shRNA and control-shRNA knockdown cells. A rat Top2β-shRNA sequence (5′-[…]-3′) was generated based on the 643-bp partial rat TopIki cDNA sequence (GenBank™ accession number D14046). Duplex (5′-[…]-3′) DNA was made and cloned into the LentiLox 3.7 vector (obtained from Dr. van Parijs, MIT). The control-shRNA sequence (5′-[…]-3′) was created by altering three nucleotides in the rat Top2β-shRNA sequence (underlined). The duplex (5′-[…]-3′) DNA was cloned into the LentiLox 3.7 vector. […]
(§6) Top2β contributes minimally to VP-16 cytotoxicity in transformed cells. […] To test if Top2β is also important for VP-16 cytotoxicity, we determined the IC50 of VP-16 in two pairs of transformed Top2β knockout/knockdown cells using 4-day MTT assay (in triplicates). […]

[9] = tested on: Top2β+/− and Top2β−/− MEFs; experiment: 4-day MTT assay in transformed MEFs; format: cell-based, mouse; details: triplicates
Protocol: as §5, §6

purified recombinant human Top2α, sequence (P11388 whole entry): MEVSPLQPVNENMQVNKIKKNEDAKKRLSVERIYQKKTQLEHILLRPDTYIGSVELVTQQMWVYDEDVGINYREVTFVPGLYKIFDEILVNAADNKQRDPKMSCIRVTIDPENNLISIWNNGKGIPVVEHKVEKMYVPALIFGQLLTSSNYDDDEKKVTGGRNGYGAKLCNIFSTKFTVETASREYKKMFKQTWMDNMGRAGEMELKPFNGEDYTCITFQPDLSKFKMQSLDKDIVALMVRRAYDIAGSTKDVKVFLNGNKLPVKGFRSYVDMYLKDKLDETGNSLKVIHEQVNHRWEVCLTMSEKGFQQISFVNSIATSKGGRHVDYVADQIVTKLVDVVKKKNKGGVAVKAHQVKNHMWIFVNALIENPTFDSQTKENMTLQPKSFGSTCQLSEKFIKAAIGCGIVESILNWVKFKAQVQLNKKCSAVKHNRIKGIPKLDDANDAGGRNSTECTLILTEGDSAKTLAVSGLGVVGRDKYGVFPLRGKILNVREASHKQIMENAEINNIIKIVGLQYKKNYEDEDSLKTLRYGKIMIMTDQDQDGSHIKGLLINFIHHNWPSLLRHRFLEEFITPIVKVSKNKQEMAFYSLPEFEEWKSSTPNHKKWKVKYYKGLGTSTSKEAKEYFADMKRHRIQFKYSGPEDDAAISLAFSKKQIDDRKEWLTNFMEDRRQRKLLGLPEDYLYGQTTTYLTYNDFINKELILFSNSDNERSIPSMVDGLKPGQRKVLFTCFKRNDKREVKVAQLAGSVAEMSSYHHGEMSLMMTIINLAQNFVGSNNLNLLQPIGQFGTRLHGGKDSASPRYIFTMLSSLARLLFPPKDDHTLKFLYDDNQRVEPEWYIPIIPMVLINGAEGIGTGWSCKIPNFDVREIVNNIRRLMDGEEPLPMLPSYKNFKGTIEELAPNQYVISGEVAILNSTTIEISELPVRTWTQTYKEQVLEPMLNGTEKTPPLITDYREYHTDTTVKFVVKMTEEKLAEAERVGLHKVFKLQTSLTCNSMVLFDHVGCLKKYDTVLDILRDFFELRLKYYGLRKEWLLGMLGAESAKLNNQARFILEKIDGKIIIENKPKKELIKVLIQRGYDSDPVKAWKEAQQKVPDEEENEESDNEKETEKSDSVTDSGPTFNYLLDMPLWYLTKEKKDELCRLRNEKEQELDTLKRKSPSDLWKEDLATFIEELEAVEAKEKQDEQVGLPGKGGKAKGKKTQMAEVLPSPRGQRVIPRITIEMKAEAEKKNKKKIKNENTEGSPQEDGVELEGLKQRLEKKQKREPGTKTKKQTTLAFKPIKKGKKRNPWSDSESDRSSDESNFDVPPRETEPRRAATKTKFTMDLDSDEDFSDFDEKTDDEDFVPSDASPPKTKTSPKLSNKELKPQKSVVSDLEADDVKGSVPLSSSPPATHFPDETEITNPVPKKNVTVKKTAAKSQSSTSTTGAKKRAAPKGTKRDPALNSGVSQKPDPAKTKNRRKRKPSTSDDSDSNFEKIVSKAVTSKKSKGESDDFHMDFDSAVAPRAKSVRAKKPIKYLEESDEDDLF
purified recombinant human Top2β, sequence (Q02880 whole entry): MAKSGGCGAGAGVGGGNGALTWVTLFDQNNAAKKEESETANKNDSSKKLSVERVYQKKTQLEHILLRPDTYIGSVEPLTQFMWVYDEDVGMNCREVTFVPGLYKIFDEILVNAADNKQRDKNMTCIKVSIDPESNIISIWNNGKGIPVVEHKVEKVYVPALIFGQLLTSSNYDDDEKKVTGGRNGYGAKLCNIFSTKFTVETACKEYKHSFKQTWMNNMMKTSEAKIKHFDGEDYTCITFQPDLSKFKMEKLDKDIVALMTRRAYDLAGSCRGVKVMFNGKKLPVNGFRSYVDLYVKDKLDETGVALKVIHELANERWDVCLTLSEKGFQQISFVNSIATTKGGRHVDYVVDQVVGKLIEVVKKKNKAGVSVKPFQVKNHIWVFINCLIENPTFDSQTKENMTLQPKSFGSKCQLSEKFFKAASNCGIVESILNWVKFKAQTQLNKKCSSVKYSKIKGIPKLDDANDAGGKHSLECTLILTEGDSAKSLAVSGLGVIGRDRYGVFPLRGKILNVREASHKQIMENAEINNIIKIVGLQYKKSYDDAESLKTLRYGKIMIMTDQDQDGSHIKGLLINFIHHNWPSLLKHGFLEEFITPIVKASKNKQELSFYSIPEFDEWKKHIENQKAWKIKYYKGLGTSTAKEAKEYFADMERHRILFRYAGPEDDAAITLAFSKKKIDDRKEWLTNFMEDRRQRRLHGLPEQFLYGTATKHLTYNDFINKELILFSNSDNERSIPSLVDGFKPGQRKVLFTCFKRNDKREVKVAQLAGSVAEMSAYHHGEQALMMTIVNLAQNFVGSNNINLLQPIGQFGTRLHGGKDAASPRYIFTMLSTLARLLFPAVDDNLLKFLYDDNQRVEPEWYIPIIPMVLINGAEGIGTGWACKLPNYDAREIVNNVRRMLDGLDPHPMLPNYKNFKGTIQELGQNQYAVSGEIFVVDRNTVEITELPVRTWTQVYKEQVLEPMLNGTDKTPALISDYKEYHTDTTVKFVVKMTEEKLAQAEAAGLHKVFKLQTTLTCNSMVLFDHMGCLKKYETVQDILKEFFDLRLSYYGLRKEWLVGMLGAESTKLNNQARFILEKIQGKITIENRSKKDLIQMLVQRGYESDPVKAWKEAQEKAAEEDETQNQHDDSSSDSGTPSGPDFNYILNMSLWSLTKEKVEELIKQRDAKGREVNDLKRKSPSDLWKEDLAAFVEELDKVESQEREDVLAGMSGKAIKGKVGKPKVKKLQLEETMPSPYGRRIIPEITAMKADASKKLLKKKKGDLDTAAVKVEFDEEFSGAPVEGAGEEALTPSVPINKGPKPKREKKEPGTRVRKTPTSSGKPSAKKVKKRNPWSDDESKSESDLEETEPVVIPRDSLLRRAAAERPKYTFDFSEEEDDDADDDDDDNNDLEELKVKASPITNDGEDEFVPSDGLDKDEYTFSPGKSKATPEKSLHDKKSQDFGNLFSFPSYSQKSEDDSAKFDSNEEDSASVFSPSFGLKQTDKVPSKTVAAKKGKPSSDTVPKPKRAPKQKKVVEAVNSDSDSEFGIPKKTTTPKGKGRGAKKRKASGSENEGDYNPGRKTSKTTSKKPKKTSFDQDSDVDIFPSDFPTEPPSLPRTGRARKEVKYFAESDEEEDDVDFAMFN

Row | Compound | activity against Top2α [2] | Poisoning activity against Top2β [3] | activity against Top2β [3] | IC50 [4] [nM] | other results
1 | ICRF-193 |  |  |  |  | effect on doxorubicin (0.5 μM)- and VP-16 (10 μM)-induced γ-H2AX [1]: abolished
2 | 9-butyl-1-chlorobenzyl-2-(3-phenylpropyl)-9H-pyrido[3,4-b]indol-2-ium [compound 10] | roughly 20 fold | + | 10 fold | < 1700 | 
3 | 2,9-dibenzyl-1-chlorophenyl-9H-pyrido[3,4-b]indol-2-ium [compound 8] | roughly 20 fold | − | non-detectable | 6100 | 
4 | COc1cccc2c1C(=O)c1c(O)c3c(c(O)c1C2=O)C[C@@](O)(C(=O)CO)C[C@@H]3O[C@H]1C[C@H](N)[C@H](O)[C@H](C)O1 [Doxorubicin, doxorubicin] |  |  |  |  | induction of γ-H2AX ([1]; 0.1-10 μM, 1 hr): concentration-dependent up to 1 μM
5 | Cc1c2c(cc[n+]1Cc1ccccc1)c1ccc(OCC(C)C)cc1n2CC(C)C [compound 4, 2-benzyl-7-isobutoxy-9-isobutyl-1-methyl-9H-pyrido[3,4-b]indol-2-ium] | roughly 20 fold | − | non-detectable | 5300 | 
6 | CCCCCCCCCCCCCC(=O)O[C@@H]1[C@@H](C)[C@@]2(O)[C@@H](C=C(CO)C[C@]3(O)C(=O)C(C)=C[C@@H]23)[C@@H]2C(C)(C)[C@]12OC(C)=O [TPA, phorbol 12-tetradecanoate 13-acetate] |  |  |  |  | ratio of average number of melanomas per mouse, Top2β+ versus Top2β− mice ([5]; Group 4, TPA treatment): 1.3; increase in the average number of melanomas per mouse versus DMSO ([5]; TOP2β+ mice, Group 4, 17 nmol × 8 applications): 130%; increase in skin melanoma versus DMSO ([5]; TOP2β− mice, Group 4, 17 nmol × 8 applications): 150%
7 | CCCCOc1ccc2c3cc[n+](Cc4ccccc4)c(C)c3n(CC(C)C)c2c1 [compound 3, 2-benzyl-7-butoxy-9-isobutyl-1-methyl-9H-pyrido[3,4-b]indol-2-ium] | roughly 20 fold | − | non-detectable | 4600 | 
8 | 1,2-dibenzyl-9-fluorobenzyl-9H-pyrido[3,4-b]indol-2-ium [compound 9] | roughly 20 fold | − | non-detectable | 4200 | 
9 | CC(=O)N[C@@H](CS)C(=O)O [N-Acetyl Cysteine] |  |  |  |  | effect on doxorubicin-induced γ-H2AX [1]: unaffected
10 | O=C1O[C@H]([C@@H](O)CO)C(O)=C1O [vitamin C] |  |  |  |  | effect on doxorubicin-induced γ-H2AX [1]: unaffected
11 | CC(C)C[C@H](NC(=O)[C@H](Cc1ccccc1)NC(=O)c1cnccn1)B(O)O [bortezomib] |  |  |  |  | effect on doxorubicin-induced comet tail moment [6]: significantly reduced; effect on dexrazoxane-induced degradation of Top2β [7]: abolished
12 | COc1cc([C@@H]2c3cc4c(cc3[C@@H](O[C@@H]3O[C@@H]5CO[C@@H](C)O[C@H]5[C@H](O)[C@H]3O)[C@H]3COC(=O)[C@H]23)OCO4)cc(OC)c1O [VP16, etoposide] |  |  |  |  | IC50 ([8]; Top2β-shRNA-PC12 cells): 1600 ± 100 nM; IC50 ([8]; control-shRNA-PC12 cells): 1900 ± 100 nM; more melanomas in TOP2β+ mice than in skin-specific Top2β knockout mice ([5]; mouse, in vivo): 2-13 fold; IC50 ([9]; Top2β+/− MEFs): 38 ± 7 nM; IC50 ([9]; Top2β−/− MEFs): 40 ± 6 nM
